Data reported in ChEMBL document CHEMBL1649274, “Mutational upregulation of a resistance-nodulation-cell division-type multidrug efflux pump, SdeAB, upon exposure to a biocide, cetylpyridinium chloride, and antibiotic resistance in Serratia marcescens” (Antimicrob Agents Chemother, 2009).
Values after ≈ are worked out from the molar mass of the structure shown.

Key:
[1] = tested on: Serratia marcescens; test: Antimicrobial activity against cetylpyridinium chloride-resistant Serratia marcescens 011 harboring plasmid STV28 expressing sdeB gene by broth dilution method; type: functional
[2] = tested on: Serratia marcescens; test: Antimicrobial activity against cetylpyridinium chloride-resistant Serratia marcescens 01 by broth dilution method; type: functional
[3] = tested on: Serratia marcescens; test: Antimicrobial activity against cetylpyridinium chloride-resistant Serratia marcescens HMS011 by broth dilution method; type: functional
[4] = tested on: Serratia marcescens; test: Cellular uptake at cetylpyridinium chloride-resistant Serratia marcescens 01 at 50 ug/ml after 60 mins by spectrofluorometry in presence of […] proteon conductor CCCP; type: ADME, organism-based; details: in vivo, 1 h
[5] = tested on: Serratia marcescens; test: Antimicrobial activity against cetylpyridinium chloride-sensitive Serratia marcescens 79 harboring plasmid STV29 by broth dilution method; type: functional
[6] = tested on: Serratia marcescens; test: Cellular uptake at cetylpyridinium chloride-resistant Serratia marcescens 01 at 50 ug/ml after 60 mins by spectrofluorometry; type: ADME, organism-based; details: in vivo, 1 h
[7] = tested on: Serratia marcescens; test: Antimicrobial activity against cetylpyridinium chloride-sensitive Serratia marcescens 79 by broth dilution method; type: functional
[8] = tested on: Serratia marcescens; test: Antimicrobial activity against cetylpyridinium chloride-sensitive Serratia marcescens 71 harboring plasmid STV29 by broth dilution method; type: functional
[9] = tested on: Serratia marcescens; test: Cellular uptake at Serratia marcescens ATCC 13880 at 50 ug/ml after 60 mins by spectrofluorometry in presence of […] proteon conductor CCCP; type: ADME, organism-based; details: in vivo, 1 h
[10] = tested on: Serratia marcescens; test: Antimicrobial activity against cetylpyridinium chloride-resistant Serratia marcescens 01 harboring plasmid STV29 by broth dilution method; type: functional
[11] = tested on: Serratia marcescens; test: Antimicrobial activity against Serratia marcescens ATCC 13880 harboring plasmid STV29 by broth dilution method; type: functional
[12] = tested on: Serratia marcescens; test: microbe, parasite or virus in culture; type: functional; details: ATCC 13880
Description: Antimicrobial activity against Serratia marcescens ATCC 13880 by broth dilution method

[13] = tested on: Serratia marcescens; test: Cellular uptake at Serratia marcescens ATCC 13880 at 50 ug/ml after 60 mins by spectrofluorometry; type: ADME, organism-based; details: in vivo, 1 h
[14] = tested on: Serratia marcescens; test: Antimicrobial activity against cetylpyridinium chloride-resistant Serratia marcescens HMS011 harboring plasmid STV28 expressing sdeB gene by broth dilution method; type: functional
[15] = tested on: Serratia marcescens; test: Antimicrobial activity against cetylpyridinium chloride-sensitive Serratia marcescens 71 harboring plasmid STV29 expressing hasF gene by broth dilution method; type: functional
[16] = tested on: Serratia marcescens; test: Antimicrobial activity against cetylpyridinium chloride-resistant Serratia marcescens 011 by broth dilution method; type: functional
[17] = tested on: Serratia marcescens; test: Antimicrobial activity against cetylpyridinium chloride-sensitive Serratia marcescens 71 by broth dilution method; type: functional
[18] = tested on: Serratia marcescens; test: Antimicrobial activity against cetylpyridinium chloride-sensitive Serratia marcescens 79 harboring plasmid STV29 expressing hasF gene by broth dilution method; type: functional

Row | Compound | MIC [1] [µg/mL] | MIC [2] [µg/mL] | MIC [3] [µg/mL] | Drug uptake [4] [a.u.] | MIC [5] [µg/mL] | Drug uptake [6] [a.u.] | MIC [7] [µg/mL] | MIC [8] [µg/mL] | Drug uptake [9] [a.u.] | MIC [10] [µg/mL] | MIC [11] [µg/mL] | MIC [12] [µg/mL] | Drug uptake [13] [a.u.] | MIC [14] [µg/mL] | MIC [15] [µg/mL] | MIC [16] [µg/mL] | MIC [17] [µg/mL] | MIC [18] [µg/mL]
1 | CCn1cc(C(=O)O)c(=O)c2cc(F)c(N3CCNCC3)cc21 [NORFLOXACIN] | 3.13 (≈ 9.8 µM) | 3.13 (≈ 9.8 µM) | 0.2 (≈ 0.626 µM) | 250 | 0.05 (≈ 0.157 µM) | 10 | 0.05 (≈ 0.157 µM) | 0.05 (≈ 0.157 µM) | 250 | 3.13 (≈ 9.8 µM) | 0.2 (≈ 0.626 µM) | 0.2 (≈ 0.626 µM) | 60 | 0.2 (≈ 0.626 µM) | 3.13 (≈ 9.8 µM) | 0.78 (≈ 2.44 µM) | 0.05 (≈ 0.157 µM) | 3.13 (≈ 9.8 µM)
2 | CC1(C)S[C@@H]2[C@H](NC(=O)[C@H](N)c3ccccc3)C(=O)N2[C@H]1C(=O)O [AMPICILLIN] |  | 6.25 (≈ 17.9 µM) |  |  |  |  | 6.25 (≈ 17.9 µM) |  |  |  |  | 100 (≈ 286 µM) |  |  |  |  | 6.25 (≈ 17.9 µM) | 
3 | O=C(N[C@H](CO)[C@H](O)c1ccc([N+](=O)[O-])cc1)C(Cl)Cl [CHLORAMPHENICOL] | > 400 | 100 (≈ 309 µM) | 12.5 (≈ 38.7 µM) |  | > 400 |  | 3.13 (≈ 9.69 µM) | > 400 |  | > 400 | > 400 | 12.5 (≈ 38.7 µM) |  | > 400 | > 400 | 25 (≈ 77.4 µM) | 3.13 (≈ 9.69 µM) | > 400
4 | CCCCCCCCCCCC[n+]1ccccc1.[I-] |  | 100 |  |  |  |  | 6.25 |  |  |  |  | 100 |  |  |  |  | 12.5 | 
5 | NC[C@H]1O[C@H](O[C@H]2[C@H](O)[C@@H](O[C@H]3O[C@H](CO)[C@@H](O)[C@H](N)[C@H]3O)[C@H](N)C[C@@H]2N)[C@H](O)[C@@H](O)[C@@H]1O [KANAMYCIN] | 1.56 (≈ 3.22 µM) | 1.56 (≈ 3.22 µM) | 1.56 (≈ 3.22 µM) |  |  |  | > 400 |  |  | 1.56 (≈ 3.22 µM) | 1.56 (≈ 3.22 µM) | 1.56 (≈ 3.22 µM) |  | 1.56 (≈ 3.22 µM) |  | 1.56 (≈ 3.22 µM) | > 400 | 
6 | CC1COc2c(N3CCN(C)CC3)c(F)cc3c(=O)c(C(=O)O)cn1c23 (configuration not stated) [OFLOXACIN] |  | 3.13 (≈ 8.66 µM) |  |  |  |  | 0.05 (≈ 0.138 µM) |  |  |  |  | 0.1 (≈ 0.277 µM) |  |  |  |  | 0.05 (≈ 0.138 µM) | 
7 | CCn1cc(C(=O)O)c(=O)c2cc(F)c(N3CCNC(C)C3)c(F)c21 (configuration not stated) [LOMEFLOXACIN] | 1.56 (≈ 4.44 µM) | 1.56 (≈ 4.44 µM) | 0.2 (≈ 0.569 µM) |  | 0.05 (≈ 0.142 µM) |  | 0.05 (≈ 0.142 µM) | 0.05 (≈ 0.142 µM) |  | 1.56 (≈ 4.44 µM) | 0.2 (≈ 0.569 µM) | 0.2 (≈ 0.569 µM) |  | 0.2 (≈ 0.569 µM) | 1.56 (≈ 4.44 µM) | 0.78 (≈ 2.22 µM) | 0.05 (≈ 0.142 µM) | 1.56 (≈ 4.44 µM)
8 | CN[C@@H]1[C@H](O[C@H]2[C@H](O[C@H]3[C@H](O)[C@@H](O)[C@H](N=C(N)N)[C@@H](O)[C@@H]3N=C(N)N)O[C@@H](C)[C@]2(O)C=O)O[C@@H](CO)[C@H](O)[C@H]1O [STREPTOMYCIN] |  | 3.13 (≈ 5.38 µM) |  |  |  |  | 1.56 (≈ 2.68 µM) |  |  |  |  | 3.13 (≈ 5.38 µM) |  |  |  |  | 1.56 (≈ 2.68 µM) | 
